Data published in EPA's ToxValDB 9.5 (doi:10.2903/j.efsa.2010.1671).

Experiments:
Rattus norvegicus = settings: for NOAEL: inhalation
Macromiidae = settings: acute; duration: 72 hours; biomass
Colinus virginianus = settings: acute, oral, mortality
Anas platyrhynchos = settings: short-term; oral; feed; mortality
Leuciscus idus = settings: acute; duration: 96 hours; mortality
Coturnix japonica = settings: reproduction developmental
[1] = chronic, duration: 2 years, no effects
[2] = reproduction developmental, mortality
[3] = subchronic, duration: 90 days, no effects

SMILES | NOAEL (Rattus norvegicus; [1]) [mg/kg-day] | NOAEL (Rattus norvegicus; [2]) [mg/kg-day] | NOAEL (Rattus norvegicus; [3]) [mg/kg-day] | LD50 (Rattus norvegicus; acute, oral, mortality) [mg/kg-day] | LOEC (Rattus norvegicus; subchronic, duration: 90 days, oral) [mg/kg-day] | NOEC (Macromiidae) [mg/L] | LC50 (Colinus virginianus; diet) [mg/kg] | LD50 (Colinus virginianus) [mg/kg-day] | LC50 (Anas platyrhynchos) [mg/kg] | LC50 (Leuciscus idus) [µg/mL] | NOEL (Coturnix japonica; F) [mg/kg-day] | NOEL (Coturnix japonica; M) [mg/kg-day]
P [Phosphine] | 1.1 | 1.9 | 1.1 | – | – | – | – | – | – | – | – | –
[PH]=[Zn].[PH]=[Zn].[Zn] [Zinc phosphide (Zn3P2)] | 1.1 | 1.9 | 1.1 | 37 | 3.5 | 0.00323 | 468 | 12.9 | 2880 | > 21.7 | 0.99 | 1.2
